In patent US8329686B2, “Isatin analogues and uses therefor” (Washington University, priority 2006, dated 2012):
Where two headings read alike, the source gives them in different places. Residues, ends and D or L forms follow the SMILES beside them.

What was measured:
Assay type in all cases: biochemical
caspase 1 = molecular target: T1, caspase 1 (Homo sapiens, UniProt P29466); test: Enzyme inhibition assay, caspase 1 (fluorogenic Ac-YVAD-AMC)
T1 construct: purchased BIOMOL Research Laboratories (Plymouth Meeting, Pa.)
T1 sequence (P29466 120-297 limits assumed): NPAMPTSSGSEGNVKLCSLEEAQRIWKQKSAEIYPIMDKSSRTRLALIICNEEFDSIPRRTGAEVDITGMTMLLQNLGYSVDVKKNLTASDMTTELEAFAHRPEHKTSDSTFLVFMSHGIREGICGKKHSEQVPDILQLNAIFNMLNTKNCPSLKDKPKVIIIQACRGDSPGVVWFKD
T1 sequence (P29466 317-404 limits assumed): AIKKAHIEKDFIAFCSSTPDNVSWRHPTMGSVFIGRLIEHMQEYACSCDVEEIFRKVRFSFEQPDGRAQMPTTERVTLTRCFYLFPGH

caspase-3 = molecular target: T2, caspase-3 (Homo sapiens, UniProt P42574); test: Enzyme inhibition assay, caspase 3 (fluorogenic Ac-DEVD-AMC)
T2 construct: purchased Sigma-Aldrich (St. Louis, Mo.)
T2 sequence (P42574 29-175 limits assumed): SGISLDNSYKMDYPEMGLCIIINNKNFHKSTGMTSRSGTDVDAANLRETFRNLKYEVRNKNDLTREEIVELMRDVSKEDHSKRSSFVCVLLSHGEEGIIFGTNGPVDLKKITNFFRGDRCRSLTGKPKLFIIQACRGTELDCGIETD
T2 sequence (P42574 176-277 limits assumed): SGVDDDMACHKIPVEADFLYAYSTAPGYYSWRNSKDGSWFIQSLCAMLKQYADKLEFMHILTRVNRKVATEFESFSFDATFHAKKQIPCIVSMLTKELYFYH

caspase 6 = molecular target: T3, caspase 6 (Homo sapiens, UniProt P55212); test: Enzyme inhibition assay, caspase 6 (fluorogenic Ac-VEID-AMC)
T3 construct: purchased Sigma-Aldrich (St. Louis, Mo.)
T3 sequence (P55212 24-179 limits assumed): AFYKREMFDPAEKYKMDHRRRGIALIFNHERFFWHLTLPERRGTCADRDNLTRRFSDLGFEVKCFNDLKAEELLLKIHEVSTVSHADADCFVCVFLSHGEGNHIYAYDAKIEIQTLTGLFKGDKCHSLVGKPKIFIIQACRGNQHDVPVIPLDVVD
T3 sequence (P55212 194-293 limits assumed): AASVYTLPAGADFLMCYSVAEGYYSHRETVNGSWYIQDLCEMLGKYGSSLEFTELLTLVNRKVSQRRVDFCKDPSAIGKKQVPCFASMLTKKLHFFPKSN
Protocol: (§1) Enzyme Assays. Inhibition of recombinant human caspase-3 and other caspases by the isatin analogues was assessed using a fluorometric assay by measuring the accumulation of a fluorogenic product, 7-amino-4-methylcoumarin (7-AMC).
(§2) Enzyme Inhibition Assays. Recombinant human caspases (3, 6, 7, and 8) and their peptide-specific substrates (Ac-DEVDAMC, Ac-VEID-AMC, Ac-DEVD-AMC, and Ac-IETD-AMC, respectively) were purchased from Sigma-Aldrich (St. Louis, Mo.) with the exception of caspase 1 and its substrate (Ac-YVAD-AMC), which were obtained from BIOMOL Research Laboratories (Plymouth Meeting, Pa.). The enzymatic activity of caspases was determined by measuring the accumulation of the fluorogenic product 7-amino-4-methylcoumarin (AMC). All assays were prepared in 96-well format at a volume of 210 μL per well and consisted of 100 mM Na+ HEPES (pH 7.4), 10% sucrose, 100 mM NaCl, 0.1% CHAPS, 5 mM 2-mercaptoethanol, 2 mM EDTA, 10 μM Ac-YVAD-AMC (caspase 1); 20 mMNa^+ HEPES (pH 7.4), 10% sucrose, 100 mMNaCl, 0.1% CHAPS, 2 mM EDTA, 10 μM Ac-DEVD-AMC (caspase 3); 20 mM Na^+ HEPES (pH 7.4), 10% sucrose, 100 mM NaCl, 0.1% CHAPS, 2 mM EDTA, 10 μM Ac-VEID-AMC (caspase 6); 20 mM Na+ HEPES (pH 7.4), 100 mM NaCl, 10% sucrose, 0.1% CHAPS, 5 mM 2-mercaptoethanol, 2 mM EDTA, 10 μM Ac-DEVD-AMC (caspase 7); 20 mM Na+ HEPES (pH 7.4), 10% sucrose, 100 mM NaCl, 0.1% CHAPS, 2 mM EDTA, 10 μM Ac-IETD-AMC (caspase 8).
(§3) Recombinant caspases were first assayed to determine the optimal concentration for each experiment. Optimal concentrations were based in the linear range of the enzyme activation curves. Peptide inhibitors with known IC50 values were tested together with the compounds as a control for each caspase assay. […] Peptide and nonpeptide inhibitors were dissolved in DMSO, and a 2 serial dilution was performed prior to screening in order to obtain desired concentrations. 10 μL was added to each well containing 100 μL caspase solution and allowed to incubate on ice for 30 min. […] The final concentration of DMSO in all wells was 5% of the total volume. In caspase-1 and caspase-7 assays, 10 mM 2-mercaptoethanol was added to the substrate solution for full activation of the enzymes.
(§4) Compounds were tested in duplicate, and IC50 curves were calculated for all inhibitors assayed. Final IC50s were the average of three independent experiments.

caspase 7 = molecular target: T4, caspase 7 (Homo sapiens, UniProt P55210); test: Enzyme inhibition assay, caspase 7 (fluorogenic Ac-DEVD-AMC)
T4 construct: purchased Sigma-Aldrich (St. Louis, Mo.)
T4 sequence (P55210 24-198 limits assumed): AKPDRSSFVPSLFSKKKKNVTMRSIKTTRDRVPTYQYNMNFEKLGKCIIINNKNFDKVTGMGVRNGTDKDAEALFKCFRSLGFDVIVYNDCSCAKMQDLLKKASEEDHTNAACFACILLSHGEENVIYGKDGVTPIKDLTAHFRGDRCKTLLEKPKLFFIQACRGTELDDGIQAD
T4 sequence (P55210 207-303 limits assumed): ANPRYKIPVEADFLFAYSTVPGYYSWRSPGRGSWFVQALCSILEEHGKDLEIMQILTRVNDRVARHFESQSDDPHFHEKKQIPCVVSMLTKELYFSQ

caspase 8 = molecular target: T5, caspase 8 (Homo sapiens, UniProt Q14790); test: Enzyme inhibition assay, caspase 8 (fluorogenic Ac-IETD-AMC)
T5 construct: purchased Sigma-Aldrich (St. Louis, Mo.)
Protocol: as §1, §2, §3, §4

[1] = Table 2, read-out: IC50 (nM) Caspase 1
[2] = Table 2, read-out: IC50 (nM) Caspase 3
[3] = Table 2, read-out: IC50 (nM) Caspase 6
[4] = Table 2, read-out: IC50 (nM) Caspase 7
[5] = Table 2, read-out: IC50 (nM) Caspase 8
[6] = Table 4, read-out: IC50 (nM) caspase-3
[7] = Table 4, read-out: IC50 (nM) caspase-7
[8] = Table 1, read-out: IC50 (nM) Caspase 1
[9] = Table 1, read-out: IC50 (nM) Caspase 8

T5 sequence (Q14790 217-374 limits assumed): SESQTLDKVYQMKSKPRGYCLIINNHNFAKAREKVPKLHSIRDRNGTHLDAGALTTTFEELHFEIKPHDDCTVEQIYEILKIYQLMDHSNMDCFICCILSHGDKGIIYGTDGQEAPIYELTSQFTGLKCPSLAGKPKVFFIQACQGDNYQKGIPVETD
T5 sequence (Q14790 385-479 limits assumed): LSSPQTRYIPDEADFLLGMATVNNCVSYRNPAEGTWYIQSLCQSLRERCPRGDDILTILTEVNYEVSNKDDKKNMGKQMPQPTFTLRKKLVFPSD

Compound: N#CC(C#N)=C1C(=O)Nc2ccc(S(=O)(=O)N3CC[C@H]3COc3ccccc3)cc21 [WC-II-54]
- IC50 (caspase 1; [1]): 2380 nM
- IC50 (caspase-3; [2]): 283 ± 15 nM
- IC50 (caspase 6; [3]): 540 ± 44 nM
- IC50 (caspase 7; [4]): 2380 nM
- IC50 (caspase 8; [5]): > 50000 nM

Compound: COc1ccc(CN2C(=O)C(=C(C#N)C#N)c3cc(S(=O)(=O)N4CC[C@H]4COc4cccnc4)ccc32)cc1 [WC-II-87]
- IC50 (caspase 1; [1]): 3600 nM
- IC50 (caspase-3; [2]): 6 ± 0.8 nM
- IC50 (caspase 6; [3]): 450 ± 43 nM
- IC50 (caspase 7; [4]): 50 ± 11.6 nM
- IC50 (caspase 8; [5]): > 50000 nM

Compound: O=C1Nc2ccc(S(=O)(=O)N3CCCC3COc3cccnc3)cc2C1=O (stereo not drawn) [Compound 20, 5-(2-(Pyridin-3-yl-oxymethyl)-pyrrolidine-1-sulfonyl)-1H-indole-2,3-dione]
- IC50 (caspase 1; Table 6, read-out: IC50 (nM) caspase-1): > 5000 nM
- IC50 (caspase-3; Table 6, read-out: IC50 (nM) caspase-3): 58.3 ± 7.6 nM
- IC50 (caspase 6; Table 6, read-out: IC50 (nM) caspase-6): > 5000 nM
- IC50 (caspase 7; Table 6, read-out: IC50 (nM) caspase-7): 215 ± 49.5 nM
- IC50 (caspase 8): > 50000 nM

Compound: (S)-1-(4-Methoxybenzyl)-5-(2-phenoxymethyl-pyrrolidine-1-sulfonyl)-1H-indole-2,3-dione [Compound 11b]
- IC50 (caspase 1; Table 4, read-out: IC50 (nM) caspase-1): > 10000 nM
- IC50 (caspase-3; [6]): 14.5 ± 1.6 nM
- IC50 (caspase 6; Table 4, read-out: IC50 (nM) caspase-6): > 5000 nM
- IC50 (caspase 7; [7]): 21.8 ± 3.5 nM
- IC50 (caspase 8; Table 4, read-out: IC50 (nM) caspase-8): > 50000 nM

Compound: O=C1C(=O)N(Cc2ccc(OCCF)cc2)c2ccc(S(=O)(=O)N3CCCC3COc3ccccc3)cc21 (stereo not drawn) [WC-II-89, 1-[4-(2-Fluoroethoxy)-benzyl]-5-(2-phenoxymethyl-pyrrolidine-1-sulfonyl)-1H-indole-2,3-dione]
- IC50 (caspase 1; [8]): > 15000 nM
- IC50 (caspase-3; Table 1, read-out: IC50 (nM) Caspase 3): 9.7 ± 1.3 nM
- IC50 (caspase 6; Table 1, read-out: IC50 (nM) Caspase 6): 3720 nM
- IC50 (caspase 8; [9]): > 50000 nM

Compound: CC[C@H](C)[C@H](NC(C)=O)C(=O)N[C@@H](CCC(=O)O)C(=O)N[C@H](C(=O)N[C@H](C=O)CC(=O)O)[C@@H](C)O [Ac-IETD-CHO, reference compound] (Ac-IETD-aldehyde)
- IC50 (caspase 8; [9]): 4.7 ± 0.9 nM
- IC50 (caspase 8; [5]): 4 ± 0.1 nM

Compound: O=C1C(=O)N(Cc2ccc(F)nc2)c2ccc(S(=O)(=O)N3CCC[C@H]3COc3ccccc3)cc21 [Compound 11g, (S)-1-(6-Fluoropyridin-3-yl-methyl)-5-(2-phenoxymethylpyrrolidine-1-sulfonyl)-1H-indole-2,3-dione]
- IC50 (caspase-3; [6]): 10.3 ± 1.5 nM
- IC50 (caspase 7; [7]): 14.5 ± 0.9 nM

Compound: O=C1C(=O)N(Cc2ccc(O)cc2)c2ccc(S(=O)(=O)N3CCC[C@H]3COc3ccccc3)cc21 [Compound 11f, (S)-1-(4-Hydroxybenzyl)-5-(2-phenoxymethyl-pyrrolidine-1-sulfonyl)-1H-indole-2,3-dione]
- IC50 (caspase-3; [6]): 13.5 ± 2.4 nM
- IC50 (caspase 7; [7]): 44 ± 0.1 nM

Compound: CC(=O)N[C@@H](Cc1ccc(O)cc1)C(=O)N[C@H](C(=O)N[C@@H](C)C(=O)N[C@H](C=O)CC(=O)O)C(C)C [Ac-YVAD-CHO, reference compound]
- IC50 (caspase 1; [8]): 8.1 ± 2.1 nM
- IC50 (caspase 1; [1]): 8.1 ± 2.1 nM

Compound: O=C1C(=O)N(Cc2ccc(Br)cc2)c2ccc(S(=O)(=O)N3CCCC3COc3cccnc3)cc21 (stereo not drawn) [Compound 28c, 1-(4-Bromo-benzyl)-5-[2-(pyridin-3-yl-oxymethyl)-pyrrolidine-1-sulfonyl]-1H-indole-2,3-dione]
- IC50 (caspase 1; [8]): > 15000 nM
- IC50 (caspase 1; Table 7, read-out: IC50 (nM) Casp-1): > 15000 nM
- IC50 (caspase-3; IC50 (nM) Casp-3, Table 7): 3.6 ± 0.5 nM
- IC50 (caspase-3; IC50 (nM) Caspase 3, Table 1): 3.6 ± 0.5 nM
- IC50 (caspase 7; IC50 (nM) Casp-7, Table 7): 6.6 ± 0.1 nM
- IC50 (caspase 7; IC50 (nM) Caspase 7, Table 1): 6.6 ± 0.1 nM
- IC50 (caspase 8; [9]): > 50000 nM
- IC50 (caspase 8; Table 7, read-out: IC50 (nM) Casp-8): > 50000 nM

Compound: CC(=O)N[C@@H](CC(=O)O)C(=O)N[C@@H](CCC(=O)O)C(=O)N[C@H](C(=O)N[C@H](C=O)CC(=O)O)C(C)C [Ac-DEVD-CHO, reference compound]
- IC50 (caspase 7; Table 1, read-out: IC50 (nM) Caspase 7): 8.5 ± 1 nM
- IC50 (caspase 7; [4]): 8 ± 1 nM
